The source of these data is patent US8999937B2, “Glucocorticoid induced leucine zipper mimetics as therapeutic agents in multiple sclerosis” (Indiana University Research and Technology Corporation, priority 2011, dated 2015).

This test concerns CD4+ LNC from PLP primed SJL/J mice. Nature of the test: In vitro proliferation ([3H]-thymidine) of PLP139-151 restimulated CD4+ LNC from primed SJL/J mice. The format is cell-based, mouse. The settings on record: with Pep-1, PLP 40 μg/ml, 72 h. On the procedure:
CD4+ lymph node cells (LNC) isolated from the draining lymph nodes harvested from SJL/J mice 10 days after immunization with PLP139-151 were cultured in 96-well plates at […] in complete RPMI and restimulated with the PLP peptide (40 μg/ml) for 72 h, including a final 16-h pulse with [^3H]-thymidine. […] Separate cultures stimulated with ova (40 μg/ml) served as control for antigen specificity. Irradiated splenocytes from syngenic mice were used as antigen presenting cells (APC). Cultures were harvested onto glass fiber mats using a Skatron harvester (Skatron, Sterling, Va.), and the levels of [^3H]-thymidine incorporation were determined by liquid scintillation counting (Microbeta; Wallac, Turku, Finland). Results were confirmed by replicate experiments. Data are expressed as Δcpm (counts/min incorporated in antigen-stimulated culture-counts/min incorporated by control unstimulated culture).
Supernatants collected at 24 and 48 h were assessed for specific cytokines using the OptEIA kits (BD Biosciences). Proliferation assays included parallel cultures for 72 h with a final 18-h pulse with [^3H]thymidine measured by liquid scintillation counting (Microbeta, Turku, Finland).

Regarding `C[C@@H]1C[C@H]2[C@@H]3CCC4=CC(=O)C=C[C@]4(C)[C@@]3(F)[C@@H](O)C[C@]2(C)[C@@]1(O)C(=O)CO` [dexamethasone, reference compound], the “proliferative response (Δcpm)” value was 2226+/−327 cpm.
